Blank lines part the entries; values can stand above or below the molecule they belong to.
What was measured:
BAT precursor cells = test: BAT differentiation: UCP1 protein by Western blot; format: cell-based, mice; settings: BAT precursor cells treated with 0.1 to 10 μM for 7 days
Experimental: Precursors of BAT are isolated from the interscapular adipose pad of either normal or diabetic mice and cultured in vitro as described below based on the modifications recited in Petrovic N, Shabalina I G, Timmons J A, Cannon B, Nedergaard J. Am. J. Physiol. Endocrinol. Metab. 295:E287-E296, 2008, hereby incorporated by reference.
The brown fat pads are pooled and minced, digested for 45 minutes in isolation buffer containing 0.15% (wt/vol) collagenase. The cell suspension is filtered through a 100 μm nylon filter and centrifuged at 200×g for 5 minutes. […]
Cells are then treated with the compounds, compound salts, or co-crystals thereof being assayed for BAT differentiation. […] The development of the BAT phenotype is assessed by direct measure of the uncoupling protein 1 (UCP1), which is emblematic of brown adipose cells.
Following treatment of the cells, the growth medium is aspirated, rinsed with PBS, and lysed with KHM buffer containing 1% Igepal CA-630, and a protease inhibitor cocktail. The lysate is centrifuged at 8,000×g for 5 minutes (4° C.), the supernatant containing the cell lysate is collected and total protein analyzed using the BCA method. […] Densitometry is conducted on the scanned films using ImageJ software and analyzed using GraphPad Prism software. […]

PGC-1α = test: Expression of PGC-1α mRNA in precursor BAT cells with norepinephrine (quantitative PCR); format: cell-based, mice; settings: for PGC-1α mRNA in the presence of norepinephrine: 3 μM compound for seven days, then 1 μM norepinephrine for 2 hours
Experimental: Another example of the ability of augmented signaling between cyclic nucleotides and compounds of Formula I is shown by the effect on expression of PGC-1a, a known regulator of mitochondrial biogenesis. Increased numbers of mitochondria are predictive of utility for the reduction of body weight.
Precursor BAT cells were isolated as described above and treated with or without 3 μM compounds: 1.] Compound A: 5-(4-(2-(5-ethylpyridin-2-yl)-2-oxoethoxy)benzyl)-1,3-thiazolidine-2,4-dione; 2.] Compound C: 5-(4-(2R)-2-(5-ethylpyridin-2-yl)-2-hydroxyethoxyy)benzyl)-1,3-thiazolidine-2,4-dione; or Compound B: 5-(4-(2-(3-methoxyphenyl)-2-oxoethoxy)benzyl)-1,3-thiazolidine-2,4-dione for seven days followed by treatment with 1 μM norepinephrine for 2 hours. Total RNA was isolated from the cells and the RNA message (mRNA) for PGC-1α was measured by quantitative polymerase chain reactions.

[1] = AUC of compound related materials after oral dosing of Compound B forms; format: in vivo; settings: 250 mg free acid equivalents, formulated tablets, N=4 cynomolgus monkeys
Experimental: Referring to FIG. 8, the area under the curve (AUC) of compound related materials was compared following dosing of 250 mg of Compound B as powder in capsules of free acid (PIC), formulated tablets of micronized free acid, or formulated tablets of the Na or K salt of Compound B given at the same free acid equivalents. (N=4 cynomolgus monkeys). The formulated, compressed tablet also contained in each case approximately 40.5% lactose, 16.8% microcrystalline cellulose, 1.9% Croscarmellose sodium, 0.5% colloidal silicon dioxide, and 0.9% magnesium stearate.

diabetic KKAy mouse = test: Blood glucose lowering in diabetic KKAy mouse; format: in vivo; settings: diabetic KKAy mice (N=6), gavage once daily, plasma glucose after 4 daily doses
Experimental: In these experiments, free base or sodium salt was given to diabetic KKAy mice (N=6) and blood glucose was measured after 4 days of daily treatment at the doses indicated. KKAy mice, 8-12 weeks of age, were given the doses of the compounds according to the dosages on the X axis of FIG. 9. The compounds were given by gavage once daily at 10 mg/kg. On the fifth day (after 4 daily doses at the levels show) a blood sample was taken to measure plasma glucose.

[2] = Bioavailability of sodium salt of Compound A, crossover, oral capsule versus iv injection; format: in vivo; settings: 90 mg free base equivalents, 4 male cynomolgus monkeys
Experimental: The monkeys fasted overnight and were dosed by oral gavage washed down with 10 ml tap water. Blood samples were taken at 0.25, 0.5, 1, 2, 3, 4, 6, 9, 12, 24, and 48 hours after a single dosage was administered and assayed for drug related materials with a LCMS assay using an internal standard. 90 mg of drug was put in 00 gelatin capsules containing 90 mg of free base equivalents. This was compared to an iv injection of 2 ml/kg and 45 mg of free base solution in 50% hydroxypropyl b-cyclodextran. The absolute availability versus an iv injection was determined for both parent compound and major metabolite.

SMILES: CCc1ccc(C(=O)COc2ccc(CC3SC(=O)NC3=O)cc2)nc1 (stereo not shown) [5-(4-(2-(5-ethylpyridin-2-yl)-2-oxoethoxy)benzyl)-1,3-thiazolidine-2,4-dione]
amount of UCP1 (Western blot) (BAT precursor cells): dose-dependent increase

SMILES: CCc1ccc(C(=O)COc2ccc(CC3SC(=O)NC3=O)cc2)nc1 (stereo not shown) [Compound A, 5-(4-(2-(5-ethylpyridin-2-yl)-2-oxoethoxy)benzyl)-1,3-thiazolidine-2,4-dione]
PGC-1α mRNA in the presence of norepinephrine (PGC-1α): increase

SMILES: COc1cccc(C(=O)COc2ccc(CC3SC(=O)NC3=O)cc2)c1 (stereo not shown) [Compound B, 5-(4-(2-(3-methoxyphenyl)-2-oxoethoxy)benzyl)-1,3-thiazolidine-2,4-dione]
PGC-1α mRNA in the presence of norepinephrine (PGC-1α): increase

SMILES: CCc1ccc([C@@H](O)COc2ccc(CC3SC(=O)NC3=O)cc2)nc1 (stereo partly shown) [Compound C]
PGC-1α mRNA in the presence of norepinephrine (PGC-1α): increase

SMILES: NC[C@H](O)c1ccc(O)c(O)c1 [norepinephrine, reference compound]
PGC-1α mRNA, norepinephrine alone (PGC-1α; absence of compound (control), 1 μM norepinephrine for 2 hours): did not produce an increase

bioavailability (AUC of compound related materials) versus free acid [1]: significantly higher bioavailability
SMILES: COc1cccc(C(=O)COc2ccc(CC3SC(=O)[N-]C3=O)cc2)c1.[K+] (stereo not shown) [potassium salt of Compound B, Potassium 5-{4-[2-(3-methoxyphenyl)-2-oxoethoxy]benzyl}-2,4-dioxo-1,3-thiazolidin-3-ide]

absolute bioavailability of major metabolite versus free base [2]: significantly higher bioavailability
absolute bioavailability of parent compound versus free base [2]: significantly higher bioavailability
SMILES: CCc1ccc(C(=O)COc2ccc(CC3SC(=O)[N-]C3=O)cc2)nc1.[Na+] (stereo not shown) [sodium salt of Compound A, Sodium 5-{4-[2-(5-ethylpyridin-2-yl)-2-oxoethoxy]benzyl}-2,4-dioxo-1,3-thiazolidin-3-ide]
lowering blood glucose (diabetic KKAy mouse): excellent dose response

bioavailability (AUC of compound related materials) versus free acid [1]: significantly higher bioavailability
SMILES: COc1cccc(C(=O)COc2ccc(CC3SC(=O)[N-]C3=O)cc2)c1.[Na+] (stereo not shown) [sodium salt of Compound B, Sodium 5-{4-[2-(3-methoxyphenyl)-2-oxoethoxy]benzyl}-2,4-dioxo-1,3-thiazolidin-3-ide]

From US20120322728A1, “PPAR-SPARING THIAZOLIDINEDIONES AND COMBINATIONS FOR THE TREATMENT OF DIABETES MELLITUS AND OTHER METABOLIC DISEASES” (Metabolic Solutions Development Company, LLC, priority 2009, published 2012)
